Source: patent publication US7968579B2, “Antifungal triazole derivatives” (Daewoong Pharmaceutical Co., Ltd., priority 2005, dated 2011)
≈ marks a conversion by molar mass, not a printed value.

Legend:
[1] = tested on: Aspergillus flavus; test: In vitro assay for antifungal activity; type: cell-based; settings: RPMI 1640, 1% DMSO, concentration at which 50% of the fungi were inhibited vs negative control, alamarblue; for MIC: Aspergillus flavus
Method: (§1) Fungal strains to be tested were inoculated onto Sabouraud dextrose agar, YM agar, and Potato dextrose agar and sufficiently cultured at 35° C. for two to three days. Individual single colonies of the yeast fungi selected out of the cultured strains were sufficiently suspended in 5 ml of 0.85% sterile physiological saline, followed by correction to adjust the absorbance thereof at 530 nm to 0.108. The suspensions were diluted serially by 1:50 and then 1:20 in RPMI 1640 media to prepare liquid inocula ranging in cell count from 1.0×10^3 to 5.0×10^3 CFU/ml.
(§2) Antifungal samples were prepared by diluting the compounds of the present inventions in RPMI 1640 media to serial concentrations ranging from 0.0625 to 32 μg/ml. As a vehicle, DMSO was contained in a final concentration of 1% (V/V) in the antifungal samples. 0.1 ml of each of the dilutions in series was added to equal volume of each of the fungal inocula.
(§3) Concentrations of the compounds at which 50% of the fungi were inhibited compared to the negative control were determined using the growth indicator alamarblue.

[2] = tested on: Aspergillus fumigatus; test: In vitro assay for antifungal activity; type: cell-based; settings: RPMI 1640, 1% DMSO, concentration at which 50% of the fungi were inhibited vs negative control, alamarblue; for MIC: Aspergillus fumigatus
Method: as §1, §2, §3

[3] = tested on: Cryptococcus neoformans; test: In vitro assay for antifungal activity; type: cell-based; settings: RPMI 1640, 1% DMSO, concentration at which 50% of the fungi were inhibited vs negative control, alamarblue; for MIC: Cryptococcus neoformans
Method: as §1, §2, §3

[4] = tested on: Candida tropicalis; test: In vitro assay for antifungal activity; type: cell-based; settings: RPMI 1640, 1% DMSO, concentration at which 50% of the fungi were inhibited vs negative control, alamarblue, 24 hours; for MIC: Candida tropicalis
Method: as §1, §2, §3

[5] = tested on: Candida albicans; test: In vitro assay for antifungal activity; type: cell-based; settings: RPMI 1640, 1% DMSO, concentration at which 50% of the fungi were inhibited vs negative control, alamarblue, 24 hours; for MIC: Candida albicans
Method: as §1, §2, §3

[6] = tested on: Candida parapsilosis; test: In vitro assay for antifungal activity; type: cell-based; settings: RPMI 1640, 1% DMSO, concentration at which 50% of the fungi were inhibited vs negative control, alamarblue, 24 hours; for MIC: Lodderomyces parapsilosis
Method: as §1, §2, §3

[7] = tested on: Candida krusei; test: In vitro assay for antifungal activity; type: cell-based; settings: RPMI 1640, 1% DMSO, concentration at which 50% of the fungi were inhibited vs negative control, alamarblue, 24 hours; for MIC: Pichia kudriavzevii
Method: as §1, §2, §3

[8] = tested on: Aspergillus terreus; test: In vitro assay for antifungal activity; type: cell-based; settings: RPMI 1640, 1% DMSO, concentration at which 50% of the fungi were inhibited vs negative control, alamarblue; for MIC: Aspergillus terreus
Method: as §1, §2, §3

[9] = tested on: Candida glabrata; test: In vitro assay for antifungal activity; type: cell-based; settings: RPMI 1640, 1% DMSO, concentration at which 50% of the fungi were inhibited vs negative control, alamarblue, 24 hours; for MIC: Nakaseomyces glabratus
Method: as §1, §2, §3

[10] = tested on: Candida albicans; test: In vivo assay for antifungal activity (systemic candidiasis); settings: male mice infected i.v. with Candida albicans; 20 mg/kg orally once a day for seven days; at 28 days after the infection
Method: Azole compounds synthesized in Examples were assayed for antifungal activity in vivo.
A suspension containing Candida albicans in a concentration ranging from 7×10^7 to 8×10^7 cfu/ml was intravenously injected at a dose of 0.1 ml/head into 10 male mice. 2 hrs after the injection, the compounds of the present inventions were orally administered at a dose of 20 mg/kg to respective mice in groups of 10. The compounds were administered once a day for seven days. The periods of time for which the infected mice lived were counted. The number of mice that survived the fungal infection was represented as % survival for each test group.

[11] = Assay for acute toxicity in mice; type: in vivo; settings: oral administration, suspension in aqueous 0.5% methylcellulose, up to a dose of 2000 mg/kg, two weeks

Row | Structure (SMILES) | MIC [1] [µg/mL] | MIC [2] [µg/mL] | MIC [3] [µg/mL] | MIC [4] [µg/mL] | MIC [5] [µg/mL] | MIC [6] [µg/mL] | MIC [7] [µg/mL] | MIC [8] [µg/mL] | MIC [9] [µg/mL] | % survival [10] [%] | Antifungal Activity (MIC) Aspergillus flavus [1] [µg/mL] | Antifungal Activity (MIC) Aspergillus fumigatus [2] [µg/mL] | Antifungal Activity (MIC) Cryptococcus neoformans [3] [µg/mL] | Antifungal Activity (MIC) Candida tropicalis [4] [µg/mL] | Antifungal Activity (MIC) Candida albicans [5] | Antifungal Activity (MIC) Candida parapsilosis [6] | Antifungal Activity (MIC) Candida krusei [7] [µg/mL] | Antifungal Activity (MIC) Aspergillus terreus [8] [µg/mL] | Antifungal Activity (MIC) Candida glabrata [9] [µg/mL] | toxic syndromes (acute toxicity) [11]
1 | OC(Cn1cncn1)(Cn1cncn1)c1ccc(F)cc1F [Fluconazole, reference compound] | > 128 | > 128 | 8 (≈ 26.1 µM) | > 8 | 4 (≈ 13.1 µM) | > 8 | > 32 | > 128 | > 32 | 10 |  |  |  |  |  |  |  |  |  | 
2 | C[C@@H](n1cc(-c2ccccc2)cn1)[C@](O)(Cn1cncn1)c1ccc(F)cc1F [Example 2] |  |  |  |  |  |  |  |  |  |  | 4 | 1 | 0.25 | 0.25 | ≦0.015 μg/ml | ≦0.015 μg/ml | 0.5 | 4 | 2 | 
3 | C[C@@H](n1cc(-c2cccc(F)c2)cn1)[C@](O)(Cn1cncn1)c1ccc(F)cc1F [Example 8, (2R,3R)-3-(4-(3-fluorophenyl)-1H-pyrazole-1-yl)-2-(2,4-difluorophenyl)-1-(1H-1,2,4-triazole-1-yl)butane-2-ol] | 8 (≈ 19.4 µM) | 1 (≈ 2.42 µM) | 0.031 (≈ 0.075 µM) | 0.25 (≈ 0.605 µM) | ≤ 0.015 | ≤ 0.015 | 0.5 (≈ 1.21 µM) | 2 (≈ 4.84 µM) | 2 (≈ 4.84 µM) |  |  |  |  |  |  |  |  |  |  | 
4 | C[C@@H](n1cc(-c2ccc(Br)cc2)cn1)[C@](O)(Cn1cncn1)c1ccc(F)cc1F [Example 15, (2R,3R)-3-(4-(4-bromophenyl)-1H-pyrazole-1-yl)-2-(2,4-difluorophenyl)-1-(1H-1,2,4-triazole-1-yl)butane-2-ol] | 4 (≈ 8.43 µM) | 1 (≈ 2.11 µM) | 0.125 (≈ 0.264 µM) | 0.125 (≈ 0.264 µM) | ≤ 0.015 | ≤ 0.015 | 0.5 (≈ 1.05 µM) | 1 (≈ 2.11 µM) | 2 (≈ 4.22 µM) |  |  |  |  |  |  |  |  |  |  | 
5 | C[C@@H](n1cc(-c2ccc(Cl)cc2)cn1)[C@](O)(Cn1cncn1)c1ccc(F)cc1F [Example 14, (2R,3R)-3-(4-(4-chlorophenyl)-1H-pyrazole-1-yl)-2-(2,4-difluorophenyl)-1-(1H-1,2,4-triazole-1-yl)butane-2-ol] | 4 (≈ 9.31 µM) | 1 (≈ 2.33 µM) | 0.25 (≈ 0.582 µM) | 0.031 (≈ 0.0721 µM) | ≤ 0.015 | ≤ 0.015 | 0.25 (≈ 0.582 µM) | 2 (≈ 4.65 µM) | 2 (≈ 4.65 µM) |  |  |  |  |  |  |  |  |  |  | not to suffer from any toxic syndromes
6 | C[C@@H](n1cc(-c2cccc(Cl)c2)cn1)[C@](O)(Cn1cncn1)c1ccc(F)cc1F [Example 9, (2R,3R)-3-(4-(3-chlorophenyl)-1H-pyrazole-1-yl)-2-(2,4-difluorophenyl)-1-(1H-1,2,4-triazole-1-yl)butane-2-ol] | 8 (≈ 18.6 µM) | 2 (≈ 4.65 µM) | 0.25 (≈ 0.582 µM) | 0.063 (≈ 0.147 µM) | ≤ 0.015 | ≤ 0.015 | 0.25 (≈ 0.582 µM) | 4 (≈ 9.31 µM) | 1 (≈ 2.33 µM) |  |  |  |  |  |  |  |  |  |  | 
7 | C[C@@H](n1cc(-c2ccccc2F)cn1)[C@](O)(Cn1cncn1)c1ccc(F)cc1F [Example 3, (2R,3R)-3-(4-(2-fluorophenyl)1H-pyrazole-1-yl)-2-(2,4-difluorophenyl)-1-(1H-1,2,4-triazole-1-yl)butane-2-ol] | 4 (≈ 9.68 µM) | 0.5 (≈ 1.21 µM) | 0.125 (≈ 0.302 µM) | 1 (≈ 2.42 µM) | ≤ 0.015 | 0.031 (≈ 0.075 µM) | 1 (≈ 2.42 µM) | 2 (≈ 4.84 µM) | 2 (≈ 4.84 µM) |  |  |  |  |  |  |  |  |  |  | 
8 | C[C@@H](n1cc(-c2ccc([N+](=O)[O-])cc2)cn1)[C@](O)(Cn1cncn1)c1ccc(F)cc1F [Example 17, (2R,3R)-2-(2,4-difluorophenyl)-3-(4-(4-nitrophenyl)-1H-pyrazole-1-yl)-1-(1H-1,2,4-triazole-1-yl)butane-2-ol] | 8 (≈ 18.2 µM) | 2 (≈ 4.54 µM) | 0.031 (≈ 0.0704 µM) | 0.125 (≈ 0.284 µM) | ≤ 0.015 | ≤ 0.015 | 0.25 (≈ 0.568 µM) | 2 (≈ 4.54 µM) | 4 (≈ 9.08 µM) |  |  |  |  |  |  |  |  |  |  | not to suffer from any toxic syndromes
